From patent publication US6602487B1, “Methods and tests for producing and for inhibiting coronary artery vasospasms” (Dimera Incorporated, priority 1997, dated 2003)

Test system: coronary artery vascular muscle cells (VMC)
Assay: Subcellular Ca2+ and PKC localization and contraction of coronary VMC stimulated with serotonin plus U46619
Type: cell-based, rhesus monkeys
Details: VMC from treated monkeys, 10 μM serotonin plus 100 nM U46619
Description: Single VMCs from the left anterior descending, circumflex, and right coronary arteries of adult rhesus monkeys were isolated and studied both as freshly dispersed and as primary cultures. The short-term primary cultured cells (never passaged) maintain the characteristics of the source tissue for 2 3 weeks, including contraction, relaxation, receptors, and membrane electrical properties. VMCs were dissociated with collagenase and protease enzymes in a potassium glutamate solution (KG) that prevent loading with Na^+, Ca^2+, or Cl^− and results in a high proportion of viable, contracting cells (Self, D. A., et al., J. Vasc. Res. 31:359-366 (1994); Rusch., N. J., et al., Physiology and Pathophysiology of the Heart, 999-1010 (1995)). The cells prepared for culture were seeded at low density in cardiovascular culture solution for mammals, fifth generation (CV5M) on glass coverslips to facilitate selection of individual cells. VMC were used for experiments 7-14 days after attaching to coverslips.
Freshly dispersed or primary cultured VMCs on glass coverslips were placed in a chamber of laminar flow design and observed with a Zeiss Plan Neofluar 25×/0.80 water immersion objective. Ionic solution for mammals version 2 (ISM2) was continuously pumped through the chamber (at 1 ml/minute) to provide continuous equilibration and washout of drugs. After a 15 minutes equilibration period, VMC were loaded for 15 minutes at room temperature with 3 μM fluo 3 (Molecular Probes, Inc.) for sensing Ca^2− and for 10 minutes with […] hypericin (LC Laboratories) for reporting PKC. Individual VMC were stimulated by adding 20 μl of 10 μM serotonin plus 100 nM U46619 over the individual cell. After 15 seconds under no-flow conditions, continuous flow of ISM2 was reinstated and a chamber volume of approximately 300 μl was maintained. Fluorescent images were taken at 1, 2, 5, 10, 15, 20 and 30 minutes after stimulation for Ca^2+ and at 3, 4, 9, 16, 21 and 31 minutes for PKC to evaluate subcellular distribution of these signals, and to determine VMC contraction.
ISM2 contains (in mM): 100 NaCl, 4 NaHCO3, 0.5 NaH2PO4, 4.7 KCl, 1.8 CaCl2, 0.41 […], 50 HEPES (pH 7.37), and 5.5 dextrose, KG solution consists of (in mM); 140 K-glutamate, 16 NaHCO3, 0.5 NaH2PO4, 30 HEPES, and 16.5 dextrose at pH 7.3. CVSM consists of. 4.0 mM L-glutamine, 10 μg/ml ciprofloxacin (Miles Pentex/Bayer Corporation), 50 mM HEPES (pH 7.3), and 16 mM NaHCO3 dissolved in 85% MEM-Earle's'salts and 15% horse serum. Phenol red, known to have estrogenic activity, was omitted from all solutions.
As discussed above, the monkeys were implanted with subdermal sylastic tubing containing estrogen (E) progesterone (P) or MPA. The first step in each of the three groups was to implant sylastic tubing containing E. Two weeks later, either P or MPA were additionally implanted and maintained for another 4 weeks (6 weeks total). In the withdrawal (W) group, the E tube was withdrawn, and no tubes were implanted for the last 4 weeks.

## CC(=O)[C@H]1CC[C@H]2[C@@H]3CCC4=CC(=O)CC[C@]4(C)[C@H]3CC[C@]12C [P, progesterone]
FIG. 3
  whole cell Ca2+ (fluo 3) fluorescence after stimulation: increased significantly over control only at 1 minute
FIG. 4
  peripheral-to-central Ca2+ ratio after stimulation: too small to be significant
FIG. 5
  PKC signal after stimulation: failed to change PKC loci or intensity significantly from control values
FIG. 6
  peripheral-to-central PKC ratio after stimulation: never significantly different from control
FIG. 7
  VMC contractions (cell width) after stimulation: significantly different from 0-min controls only at 3 and 4 minutes
